Results from PubChem BioAssay (NCI).
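In this assay, cells in 96-well plates receive the compound at five concentrations for 48 hours. Endpoints are linearly interpolated between the surrounding concentrations. The concentration for full growth arrest is given as TGI.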

Experiments:
Experiment in all cases: growth of human tumour cells (NCI), 48 h
IGROV1 ovarian = tested on: IGROV1 ovarian
EKVX NSCLC = tested on: EKVX NSCLC
HCC-2998 colon = tested on: HCC-2998 colon
NCI/ADR-RES ovarian = tested on: NCI/ADR-RES ovarian
MDA-MB-231 breast = tested on: MDA-MB-231 breast
HS 578T breast = tested on: HS 578T breast
M14 melanoma = tested on: M14 melanoma
U251 CNS = tested on: U251 CNS
OVCAR-5 ovarian = tested on: OVCAR-5 ovarian
HCT-15 colon = tested on: HCT-15 colon
NCI-H23 lung = tested on: NCI-H23 lung
SK-OV-3 ovarian = tested on: SK-OV-3 ovarian
UACC-257 melanoma = tested on: UACC-257 melanoma
HCT-116 colon = tested on: HCT-116 colon
OVCAR-8 ovarian = tested on: OVCAR-8 ovarian
MDA-MB-435 = tested on: MDA-MB-435
KM12 colon = tested on: KM12 colon
786-0 renal = tested on: 786-0 renal
PC-3 prostate = tested on: PC-3 prostate
COLO 205 colon = tested on: COLO 205 colon
SK-MEL-28 melanoma = tested on: SK-MEL-28 melanoma
HOP-62 NSCLC = tested on: HOP-62 NSCLC
A549 NSCLC = tested on: A549 NSCLC
UO-31 renal = tested on: UO-31 renal
HOP-92 NSCLC = tested on: HOP-92 NSCLC
T-47D breast = tested on: T-47D breast
HT29 colon = tested on: HT29 colon
SF-539 CNS = tested on: SF-539 CNS
TK-10 renal = tested on: TK-10 renal
DU-145 prostate = tested on: DU-145 prostate
ACHN renal = tested on: ACHN renal
BT-549 breast = tested on: BT-549 breast
SF-295 CNS = tested on: SF-295 CNS

Which TGI (IGROV1 ovarian) does the source give for Cc1sc2nc(-c3ccc([N+](=O)[O-])cc3)c(/C=N/N=C(N)N)n2c1C here?
The TGI was 2710 nM.

What about the TGI (EKVX NSCLC) of the same molecule?
Its TGI is 2410 nM.

What about the TGI (HCC-2998 colon) of the same molecule?
Its TGI is 693 nM.

And the TGI (NCI/ADR-RES ovarian)?
The TGI was 11000 nM.

And the TGI (MDA-MB-231 breast)?
The TGI was 1170 nM.

What about the TGI (HS 578T breast) of the same molecule?
Its TGI is 3490 nM.

And the TGI (M14 melanoma)?
The TGI was 1990 nM.

What about the TGI (U251 CNS) of the same molecule?
The TGI was 358 nM.

And the TGI (OVCAR-5 ovarian)?
The TGI was 2810 nM.

What about the TGI (HCT-15 colon) of the same molecule?
The TGI was 2820 nM.

What about the TGI (NCI-H23 lung) of the same molecule?
The TGI was 2730 nM.

What about the TGI (SK-OV-3 ovarian) of the same molecule?
The TGI was 3120 nM.

What about the TGI (UACC-257 melanoma) of the same molecule?
Its TGI is 2770 nM.

What about the TGI (HCT-116 colon) of the same molecule?
Its TGI is 427 nM.

What about the TGI (OVCAR-8 ovarian) of the same molecule?
The TGI was 1800 nM.

What about the TGI (MDA-MB-435) of the same molecule?
Its TGI is 2250 nM.

What about the TGI (KM12 colon) of the same molecule?
Its TGI is 1030 nM.

What about the TGI (786-0 renal) of the same molecule?
The TGI was 637 nM.

And the TGI (PC-3 prostate)?
Its TGI is 2650 nM.

And the TGI (COLO 205 colon)?
Its TGI is 809 nM.

What about the TGI (SK-MEL-28 melanoma) of the same molecule?
Its TGI is 1370 nM.

And the TGI (HOP-62 NSCLC)?
Its TGI is 2120 nM.

What about the TGI (A549 NSCLC) of the same molecule?
The TGI was 2880 nM.

What about the TGI (UO-31 renal) of the same molecule?
The TGI was 2980 nM.

And the TGI (HOP-92 NSCLC)?
The TGI was 2810 nM.

And the TGI (T-47D breast)?
Its TGI is 3100 nM.

What about the TGI (HT29 colon) of the same molecule?
Its TGI is 1630 nM.

What about the TGI (SF-539 CNS) of the same molecule?
Its TGI is 3260 nM.

What about the TGI (TK-10 renal) of the same molecule?
The TGI was 2840 nM.

What about the TGI (DU-145 prostate) of the same molecule?
Its TGI is 2740 nM.

What about the TGI (ACHN renal) of the same molecule?
The TGI was 2610 nM.

What about the TGI (BT-549 breast) of the same molecule?
Its TGI is 2790 nM.

What about the TGI (SF-295 CNS) of the same molecule?
Its TGI is 2420 nM.
